Test [1] has as its target T1, 5-HT2A receptor (Homo sapiens, UniProt P28223). As to the kind of experiment: FLIPR calcium mobilization functional assay, human 5-HT2A receptor. The following applies: for Selectivity α1A/5-HT2A: ratio of Ke α1A / Ke 5-HT2A. (In general: Calcium assays in cells follow changes in intracellular calcium, usually with a dye or a luminescent sensor.)
Test [2] concerns the target T2, α1A adrenergic receptor (Homo sapiens, UniProt P35348).
T2 sequence (P35348 1-466): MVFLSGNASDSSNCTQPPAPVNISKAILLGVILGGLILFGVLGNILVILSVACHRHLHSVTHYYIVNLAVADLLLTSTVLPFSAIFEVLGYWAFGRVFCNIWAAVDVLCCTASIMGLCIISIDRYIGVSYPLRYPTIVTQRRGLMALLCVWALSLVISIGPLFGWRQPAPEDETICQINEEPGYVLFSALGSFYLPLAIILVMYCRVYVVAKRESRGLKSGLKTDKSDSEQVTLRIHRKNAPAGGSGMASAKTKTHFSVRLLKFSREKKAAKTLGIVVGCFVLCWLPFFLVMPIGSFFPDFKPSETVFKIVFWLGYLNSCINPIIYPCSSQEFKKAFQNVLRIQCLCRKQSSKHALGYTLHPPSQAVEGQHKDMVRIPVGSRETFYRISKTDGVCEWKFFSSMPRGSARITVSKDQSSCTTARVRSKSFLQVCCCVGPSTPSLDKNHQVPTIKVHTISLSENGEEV
Description: FLIPR calcium mobilization functional assay, α1A adrenergic receptor.

For test [3], the target named is T2, α1A adrenergic receptor. The following applies: prior SAR studies; cited from earlier work.
A further test deals with α1B (Homo sapiens, UniProt P35368). Description: PDSP screening. The following applies: no affinity.
Sequence of α1B (P35368 whole entry): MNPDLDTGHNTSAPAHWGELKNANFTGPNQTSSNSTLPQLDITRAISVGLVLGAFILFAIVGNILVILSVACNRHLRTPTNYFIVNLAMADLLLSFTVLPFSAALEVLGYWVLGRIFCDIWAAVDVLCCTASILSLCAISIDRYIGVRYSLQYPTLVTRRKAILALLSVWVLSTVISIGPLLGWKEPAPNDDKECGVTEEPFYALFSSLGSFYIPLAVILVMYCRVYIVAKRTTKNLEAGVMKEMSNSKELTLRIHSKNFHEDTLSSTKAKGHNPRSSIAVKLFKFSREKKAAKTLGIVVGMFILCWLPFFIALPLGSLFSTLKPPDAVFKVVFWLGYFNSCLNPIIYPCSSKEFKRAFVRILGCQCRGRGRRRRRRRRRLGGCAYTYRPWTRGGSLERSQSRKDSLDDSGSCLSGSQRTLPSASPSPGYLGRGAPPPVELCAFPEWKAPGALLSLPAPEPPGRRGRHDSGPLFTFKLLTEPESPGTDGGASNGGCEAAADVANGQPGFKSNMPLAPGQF
For another test, the target named is 5-HT2C (Homo sapiens, UniProt P28335). As to the kind of experiment: PDSP screening.
The target in a further test is β2 (Homo sapiens, UniProt P07550). Description: PDSP screening. Particulars: no affinity.
Sequence of β2 (P07550 whole entry): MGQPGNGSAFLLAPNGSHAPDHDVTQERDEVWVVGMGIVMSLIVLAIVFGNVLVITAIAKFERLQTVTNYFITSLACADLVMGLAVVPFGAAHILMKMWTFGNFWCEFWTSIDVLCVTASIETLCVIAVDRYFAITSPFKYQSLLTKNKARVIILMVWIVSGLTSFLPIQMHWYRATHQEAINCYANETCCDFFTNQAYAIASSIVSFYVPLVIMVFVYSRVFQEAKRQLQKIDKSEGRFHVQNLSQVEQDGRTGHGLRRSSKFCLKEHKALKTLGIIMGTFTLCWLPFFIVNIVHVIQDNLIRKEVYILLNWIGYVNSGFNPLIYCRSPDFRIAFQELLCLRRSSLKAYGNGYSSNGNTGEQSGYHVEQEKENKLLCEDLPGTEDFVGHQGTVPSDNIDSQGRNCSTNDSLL
A further test relates to GABAA. Description: PDSP screening. Particulars: no affinity.
In another test the target is M1 (Homo sapiens, UniProt P11229). Description: PDSP screening. The following applies: no affinity.
Sequence of M1 (P11229 whole entry): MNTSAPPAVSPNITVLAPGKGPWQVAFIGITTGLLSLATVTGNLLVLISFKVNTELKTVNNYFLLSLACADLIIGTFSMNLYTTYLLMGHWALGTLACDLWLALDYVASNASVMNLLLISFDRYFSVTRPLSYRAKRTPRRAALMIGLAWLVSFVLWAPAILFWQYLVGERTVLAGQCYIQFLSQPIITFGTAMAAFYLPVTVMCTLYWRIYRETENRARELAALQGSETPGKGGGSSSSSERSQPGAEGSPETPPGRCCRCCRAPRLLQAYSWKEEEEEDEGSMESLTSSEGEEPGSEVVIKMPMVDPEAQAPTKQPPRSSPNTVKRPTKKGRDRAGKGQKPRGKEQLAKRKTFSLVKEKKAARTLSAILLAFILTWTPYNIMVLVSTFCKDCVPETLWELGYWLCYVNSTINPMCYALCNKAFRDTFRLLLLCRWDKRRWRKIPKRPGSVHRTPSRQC
The target in the next test is D2 (Homo sapiens, UniProt P14416). As to the kind of experiment: PDSP screening. Particulars: no affinity.
The target of a further test is DOR (Homo sapiens, UniProt P41143). Description: PDSP screening. Particulars: no affinity.
The target of a further test is D4 (Homo sapiens, UniProt P21917). As to the kind of experiment: PDSP screening. The following applies: no affinity.
The target in another test is α1A (Homo sapiens, UniProt P35348). Description: PDSP screening. Particulars: no affinity.
Test [4] has as its target T1, 5-HT2A receptor. Description: PDSP screening.
A further test concerns the target D5 (Homo sapiens, UniProt P21918). As to the kind of experiment: PDSP screening. Particulars: no affinity.
For the next test, the target named is 5-HT6 (Homo sapiens, UniProt P50406). As to the kind of experiment: PDSP screening.
Another test concerns the target α2A (Homo sapiens, UniProt P08913). As to the kind of experiment: PDSP screening.
Another test concerns the target 5-HT1A (Homo sapiens, UniProt P08908). As to the kind of experiment: PDSP screening. Particulars: no affinity.
Another test addresses β1 (Homo sapiens, UniProt P08588). Description: PDSP screening. Particulars: no affinity.
Another test concerns the target M2 (Homo sapiens, UniProt P08172). As to the kind of experiment: PDSP screening. The following applies: no affinity.
Another test addresses β3 (Homo sapiens, UniProt P13945). Description: PDSP screening. The following applies: no affinity.
The target of the next test is sigma-2 (Rattus norvegicus, UniProt Q5U3Y7). As to the kind of experiment: PDSP screening.
Sequence of sigma-2 (Q5U3Y7 whole entry): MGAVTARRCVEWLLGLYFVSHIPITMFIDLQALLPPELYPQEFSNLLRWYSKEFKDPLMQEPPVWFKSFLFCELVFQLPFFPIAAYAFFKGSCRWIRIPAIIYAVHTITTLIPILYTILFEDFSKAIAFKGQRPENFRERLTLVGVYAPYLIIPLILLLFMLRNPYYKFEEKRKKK
The target in the next test is M4 (Homo sapiens, UniProt P08173). As to the kind of experiment: PDSP screening. Particulars: no affinity.
The target in a further test is NET (Homo sapiens, UniProt P23975). Description: PDSP screening. Particulars: no affinity.
For another test, the target named is KOR (Homo sapiens, UniProt P41145). As to the kind of experiment: PDSP screening. The following applies: no affinity.
Sequence of KOR (P41145 whole entry): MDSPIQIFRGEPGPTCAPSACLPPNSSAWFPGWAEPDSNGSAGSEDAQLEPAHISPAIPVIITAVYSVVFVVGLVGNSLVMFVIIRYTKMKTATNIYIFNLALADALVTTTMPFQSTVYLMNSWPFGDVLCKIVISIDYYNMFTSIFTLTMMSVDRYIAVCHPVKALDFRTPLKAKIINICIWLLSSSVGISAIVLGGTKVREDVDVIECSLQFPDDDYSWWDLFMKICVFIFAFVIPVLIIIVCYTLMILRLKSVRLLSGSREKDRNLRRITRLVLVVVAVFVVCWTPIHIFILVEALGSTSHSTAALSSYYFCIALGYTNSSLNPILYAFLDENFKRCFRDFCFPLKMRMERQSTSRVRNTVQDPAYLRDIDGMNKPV
For another test, the target named is H1 (Homo sapiens, UniProt P35367). As to the kind of experiment: PDSP screening. The following applies: no affinity.
The next test deals with PBR (Rattus norvegicus, UniProt P16257). As to the kind of experiment: PDSP screening.
The target in the next test is MOR (Homo sapiens, UniProt P35372). Description: PDSP screening. The following applies: no affinity.
Sequence of MOR (P35372 whole entry): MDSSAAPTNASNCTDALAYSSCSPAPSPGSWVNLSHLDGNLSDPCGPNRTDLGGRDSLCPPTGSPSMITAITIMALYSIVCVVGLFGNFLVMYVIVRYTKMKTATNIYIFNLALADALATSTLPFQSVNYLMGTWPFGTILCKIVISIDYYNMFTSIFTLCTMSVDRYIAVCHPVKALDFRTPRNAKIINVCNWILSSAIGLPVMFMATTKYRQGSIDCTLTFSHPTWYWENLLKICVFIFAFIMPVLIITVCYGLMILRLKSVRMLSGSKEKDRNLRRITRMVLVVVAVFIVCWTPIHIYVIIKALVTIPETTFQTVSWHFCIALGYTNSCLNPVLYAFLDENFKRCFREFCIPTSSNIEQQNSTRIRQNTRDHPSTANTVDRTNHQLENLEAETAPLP
The target in the next test is H3 (Homo sapiens, UniProt Q9Y5N1). Description: PDSP screening. Particulars: no affinity.
The next test concerns the target DAT (Homo sapiens, UniProt Q01959). As to the kind of experiment: PDSP screening.
A further test concerns the target α1D (Homo sapiens, UniProt P25100). As to the kind of experiment: PDSP screening. Particulars: no affinity.
A further test deals with BZP rat brain site. Description: PDSP screening. The following applies: no affinity.
For a further test, the target named is M3 (Homo sapiens, UniProt P20309). As to the kind of experiment: PDSP screening. Particulars: no affinity.
The target of a further test is SERT (Homo sapiens, UniProt P31645). As to the kind of experiment: PDSP screening. The following applies: no affinity.
Sequence of SERT (P31645 whole entry): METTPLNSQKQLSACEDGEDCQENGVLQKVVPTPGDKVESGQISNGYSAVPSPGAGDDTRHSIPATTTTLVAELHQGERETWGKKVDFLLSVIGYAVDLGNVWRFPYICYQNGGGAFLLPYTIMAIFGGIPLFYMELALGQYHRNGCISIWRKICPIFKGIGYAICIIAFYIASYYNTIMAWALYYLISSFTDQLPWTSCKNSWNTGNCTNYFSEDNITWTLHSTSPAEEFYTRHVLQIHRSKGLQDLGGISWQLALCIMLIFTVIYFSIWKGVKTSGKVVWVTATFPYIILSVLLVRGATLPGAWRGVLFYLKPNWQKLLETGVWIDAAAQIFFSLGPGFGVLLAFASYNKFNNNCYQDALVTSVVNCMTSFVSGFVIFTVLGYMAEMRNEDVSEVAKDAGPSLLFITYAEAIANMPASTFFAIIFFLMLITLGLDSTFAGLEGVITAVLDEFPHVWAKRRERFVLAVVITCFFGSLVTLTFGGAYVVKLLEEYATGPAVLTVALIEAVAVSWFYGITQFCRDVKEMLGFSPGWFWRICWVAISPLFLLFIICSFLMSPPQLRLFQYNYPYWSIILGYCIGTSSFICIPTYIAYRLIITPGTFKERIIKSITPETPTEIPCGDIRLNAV
The target in the next test is H4 (Homo sapiens, UniProt Q9H3N8). Description: PDSP screening. The following applies: no affinity.
The next test deals with 5-HT5A (Homo sapiens, UniProt P47898). As to the kind of experiment: PDSP screening. Particulars: no affinity.

T1 sequence (P28223 whole entry): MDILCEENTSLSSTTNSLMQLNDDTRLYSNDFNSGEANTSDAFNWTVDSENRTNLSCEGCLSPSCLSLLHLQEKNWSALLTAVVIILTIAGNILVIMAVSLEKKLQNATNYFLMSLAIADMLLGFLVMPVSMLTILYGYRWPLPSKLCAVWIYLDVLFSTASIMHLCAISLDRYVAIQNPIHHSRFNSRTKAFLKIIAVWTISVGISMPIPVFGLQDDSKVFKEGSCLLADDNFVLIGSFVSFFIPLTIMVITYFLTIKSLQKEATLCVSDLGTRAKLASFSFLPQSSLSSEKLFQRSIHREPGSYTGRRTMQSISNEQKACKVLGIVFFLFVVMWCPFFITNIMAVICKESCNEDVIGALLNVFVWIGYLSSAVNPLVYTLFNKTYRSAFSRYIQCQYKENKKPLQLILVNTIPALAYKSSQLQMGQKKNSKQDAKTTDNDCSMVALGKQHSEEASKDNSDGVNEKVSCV
Sequence of 5-HT1A (P08908 whole entry): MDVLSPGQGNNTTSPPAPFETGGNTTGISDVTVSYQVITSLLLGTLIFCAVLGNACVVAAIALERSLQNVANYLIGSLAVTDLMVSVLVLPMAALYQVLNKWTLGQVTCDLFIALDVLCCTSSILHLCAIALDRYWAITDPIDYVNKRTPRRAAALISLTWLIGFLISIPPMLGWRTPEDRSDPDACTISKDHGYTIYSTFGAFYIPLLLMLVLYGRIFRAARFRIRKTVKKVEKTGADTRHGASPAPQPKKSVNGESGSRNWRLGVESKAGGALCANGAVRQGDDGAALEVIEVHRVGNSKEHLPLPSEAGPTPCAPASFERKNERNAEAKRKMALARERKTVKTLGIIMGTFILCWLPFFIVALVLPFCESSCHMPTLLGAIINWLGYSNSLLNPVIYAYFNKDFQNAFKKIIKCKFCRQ
Sequence of M2 (P08172 whole entry): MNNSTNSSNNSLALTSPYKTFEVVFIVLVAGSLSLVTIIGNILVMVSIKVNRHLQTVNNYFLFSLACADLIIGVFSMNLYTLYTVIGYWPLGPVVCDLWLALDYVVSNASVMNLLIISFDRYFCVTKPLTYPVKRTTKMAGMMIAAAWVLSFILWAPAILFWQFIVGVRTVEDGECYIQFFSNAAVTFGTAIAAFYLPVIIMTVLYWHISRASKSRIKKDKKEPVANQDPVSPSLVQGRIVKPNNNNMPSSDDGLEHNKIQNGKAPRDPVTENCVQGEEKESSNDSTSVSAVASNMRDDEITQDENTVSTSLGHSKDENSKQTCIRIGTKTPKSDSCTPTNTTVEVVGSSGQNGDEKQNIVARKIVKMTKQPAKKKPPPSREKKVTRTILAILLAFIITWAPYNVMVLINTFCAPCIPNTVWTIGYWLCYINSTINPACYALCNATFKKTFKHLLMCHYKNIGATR
Sequence of D5 (P21918 whole entry): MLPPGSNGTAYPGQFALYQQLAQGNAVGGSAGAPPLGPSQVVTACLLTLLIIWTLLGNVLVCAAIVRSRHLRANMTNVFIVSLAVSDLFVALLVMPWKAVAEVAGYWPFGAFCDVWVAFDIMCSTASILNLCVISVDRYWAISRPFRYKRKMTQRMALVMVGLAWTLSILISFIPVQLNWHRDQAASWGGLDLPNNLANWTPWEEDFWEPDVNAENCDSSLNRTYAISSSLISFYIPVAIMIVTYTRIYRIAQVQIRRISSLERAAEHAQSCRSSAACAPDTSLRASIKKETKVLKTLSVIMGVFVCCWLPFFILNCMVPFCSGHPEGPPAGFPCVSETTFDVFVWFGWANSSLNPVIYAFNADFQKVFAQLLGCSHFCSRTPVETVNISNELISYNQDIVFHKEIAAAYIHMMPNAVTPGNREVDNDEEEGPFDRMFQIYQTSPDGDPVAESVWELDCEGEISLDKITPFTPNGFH

With `COc1cc2c3c(c1OCC#N)-c1cc4c(cc1CC3N(C)CC2)OCO4` (stereo not drawn) [Compound 8g], at 5-HT2A receptor [1], the Kb is > 10000 nM and the “Selectivity α1A/5-HT2A” value is reported as < 0.07. Also, on α1A adrenergic receptor [2], the Kb came out at 711 ± 64 nM.
On to `C=CCOc1c(OC)cc2c3c1-c1cc4c(cc1CC3N(C)CC2)OCO4` (stereo not drawn) [Compound 5], for which the Kb on α1A adrenergic receptor [2] was > 10000 nM. At α1A adrenergic receptor [3], the “affinity for the α1A adrenergic receptor” value was “devoid of affinity”.
Consider `C=C(C)COc1c(OC)cc2c3c1-c1cc4c(cc1CC3N(C)CC2)OCO4` (stereo not drawn) [Compound 8b], for which, at α1A adrenergic receptor [2], the Kb was > 10000 nM.
As to `COc1cc2c3c(c1OCC=C(C)C)-c1cc4c(cc1CC3N(C)CC2)OCO4` (stereo not drawn) [Compound 8c], the Kb at α1A adrenergic receptor [2] is > 10000 nM.
Take `COc1cc2c3c(c1OCc1ccc(C(F)(F)F)cc1)-c1cc4c(cc1CC3N(C)CC2)OCO4` (stereo not drawn) [Compound 8j]: at 5-HT2A receptor [1], the Kb is 2460 nM and the “Selectivity α1A/5-HT2A” value is reported as > 4.1. The Kb on α1A adrenergic receptor [2] is > 10000 nM.
Take `C/C=C/COc1c(OC)cc2c3c1-c1cc4c(cc1CC3N(C)CC2)OCO4` (stereo not drawn) [Compound 8a]: the Kb on α1A adrenergic receptor [2] turned out to be 1980 nM.
As to `COc1cc2c3c(c1OC/C=C/c1ccccc1)-c1cc4c(cc1CC3N(C)CC2)OCO4` (stereo not drawn) [Compound 8e], the Kb on 5-HT2A receptor [1] and on α1A adrenergic receptor [2] was > 10000 nM each time.
Broadly, the Ki is the equilibrium dissociation constant of an inhibitor or competing ligand from its target. A higher Ki goes with lower affinity. For the compound `COc1cc2c3c(c1OCc1ccc(Br)cc1)-c1cc4c(cc1CC3N(C)CC2)OCO4` (stereo not drawn) [Compound 8k], the “inhibition in a primary assay, α1B” value at α1B is reported as “less than 50%”. For the same compound, the Ki was 300 to 900 nM on 5-HT2C; 185 nM on 5-HT2A receptor [4]; 300 to 900 nM at 5-HT6; 300 to 900 nM on α2A; 300 to 900 nM at sigma-2; > 900 nM at PBR. This compound registered a Ki at DAT of 300 to 900 nM. In addition, at β2, the “inhibition in a primary assay, β2” value was “less than 50%”. Also, the “inhibition in a primary assay, GABAA” value with GABAA is “less than 50%”. Besides, the “inhibition in a primary assay, M1” value against M1 is recorded as “less than 50%”. Moreover, on D2, the “inhibition in a primary assay, D2” value was “less than 50%”. Besides, the “inhibition in a primary assay, DOR” value against DOR is recorded as “less than 50%”. The “inhibition in a primary assay, D4” value against D4 is “less than 50%”. Besides, on α1A, the “inhibition in a primary assay, α1A” value is listed as “less than 50%”. The “inhibition in a primary assay, D5” value against D5 is given as “less than 50%”. Further, at 5-HT1A, the “inhibition in a primary assay, 5-HT1A” value is on record as “less than 50%”. The “inhibition in a primary assay, β1” value against β1 is reported as “less than 50%”. Moreover, the “inhibition in a primary assay, M2” value on M2 is recorded as “less than 50%”. For the same compound, the “inhibition in a primary assay, β3” value at β3 is “less than 50%”. Besides, at M4, the “inhibition in a primary assay, M4” value is recorded as “less than 50%”. Also, on NET, the “inhibition in a primary assay, NET” value was “less than 50%”. Moreover, at KOR, the “inhibition in a primary assay, KOR” value is “less than 50%”. Also, the “inhibition in a primary assay, H1” value against H1 is given as “less than 50%”. Further, the Kb at 5-HT2A receptor [1] is 9.2 ± 2.6 nM; at α1A adrenergic receptor [2], > 10000 nM. Further, the “Selectivity α1A/5-HT2A” value on 5-HT2A receptor [1] was >1,086. Further, at MOR, the “inhibition in a primary assay, MOR” value is on record as “less than 50%”. In addition, at H3, the “inhibition in a primary assay, H3” value was “less than 50%”. In addition, the “inhibition in a primary assay, α1D” value at α1D was “less than 50%”. Also, the “inhibition in a primary assay, BZP rat brain site” value with BZP rat brain site is recorded as “less than 50%”. Besides, the “inhibition in a primary assay, M3” value against M3 was “less than 50%”. Also, the “inhibition in a primary assay, SERT” value against SERT is on record as “less than 50%”. Moreover, the “inhibition in a primary assay, H4” value at H4 was “less than 50%”. For the same compound, the “inhibition in a primary assay, 5-HT5A” value on 5-HT5A is recorded as “less than 50%”.
For the compound `COc1cc2c3c(c1OCc1ccc(Cl)cc1)-c1cc4c(cc1CC3N(C)CC2)OCO4` (stereo not drawn) [Compound 8i], at 5-HT2A receptor [1], the Kb worked out at 6050 nM and the “Selectivity α1A/5-HT2A” value is > 1.7. Besides, at α1A adrenergic receptor [2], the Kb is > 10000 nM.
As to `COc1cc2c3c(c1OC)-c1cc4c(cc1CC3N(C)CC2)OCO4` (stereo not drawn) [Compound 4, nantenine, reference compound], the Kb at α1A adrenergic receptor [2] came to 36 ± 7 nM.
In the case of `COc1cc2c3c(c1OCCOC(C)=O)-c1cc4c(cc1CC3N(C)CC2)OCO4` (stereo not drawn) [Compound 8h], the values for the Kb at 5-HT2A receptor [1] and on α1A adrenergic receptor [2] were 1910 nM and 591 ± 81 nM, respectively.

(Values after publication PMC4628873 (Bioorganic & medicinal chemistry letters, 2015).)
